Source: patent US20040247604A1, “Anti-inflamatory fatty alcohols and fatty acid esters useful as antigen carriers” (priority 2001, published 2004)
“And” between values parts separate entries of the source, which are not always exact repeats. Identical values can stand only once.

System: adjuvant arthritis
Experiment: Protection against adjuvant arthritis (AA): inhibition of joint inflammation
Type: in vivo, Lewis rats
Conditions: for % Inhibition of inflammation of adjuvant arthritis: 100 μl, subcutaneously once (14 days before or day 12 after induction of AA), day of maximal inflammation; for inflammation suppressed on day of peak disease: day 26

Compound | % Inhibition of inflammation of adjuvant arthritis (Lewis rats) | further results
CCC=CCC=CC/C=C\CCCCCCCCO [Linolenyl alcohol, cis-9,12,15-octadecatrienol] | 75% | –
Mannose monooleate | 95% | –
CCCCCCCCCCCCCCCCO [Cetyl alcohol] | 66% | –
CCCCCCCC/C=C\CCCCCCCC(=O)OCC [Ethyl oleate] | 92% | –
CCCCCCCC/C=C\CCCCCCCC(=O)OCC(O)CO (stereo not shown) [Glycerol mono-oleate] | 98% | –
CCCCCCCC/C=C\CCCCCCCC(=O)OC [Methyl oleate] | 76% | –
CCCCCCCC/C=C\CCCCCCCC(=O)O [oleic acid, cis-9-octadecenoic acid, reference compound] | no effect | –
CCCCCCCC/C=C\CCCCCCCCO [Oleyl alcohol, cis-9-octadecenol] | 78%-96% | inflammation suppressed on day of peak disease (10 μl SC once 14 days before induction of AA): 14%; inflammation suppressed on day of peak disease (50 μl SC once 14 days before induction of AA): 61%; inflammation suppressed on day of peak disease (100 μl SC once 14 days before induction of AA): 78%; inflammation suppressed on day of peak disease (500 μl SC once 14 days before induction of AA): 90%; suppression of the inflammation (500 μl oleyl alcohol, two further experiments, Lewis rats): 96% and 91%
